Literature values in patent US20060246133A1, “Controlled release pharmaceutical compositions of liothyronine and methods of making and using the same” (priority 2005, published 2006).

Details: when administered in an immediate release form

half-life: about 10 hours
Compound: N[C@@H](Cc1cc(I)c(Oc2ccc(O)c(I)c2)c(I)c1)C(=O)O [liothyronine]
